Source: EP3481220B1, “SWEET RAPESEED PROTEIN ISOLATE AND PROCESS FOR OBTAINING IT” (DSM IP Assets B.V., priority 2016, dated 2018)

Experiments:
[1] = Equal sweetness, sensory panel, versus sucrose solutions; type: in vivo; conditions: scored against the reference = 50, line scale 0-100
Excerpt: The flavor characteristics can be evaluated by a sensory panel using techniques known in the art. Investigating the effects of flavor, mouthfeel and aftertaste requires an extended evaluation of the products and this was done by using Quantitative Descriptive Analysis (QDA). Therefore, a sensory panel assessed the protein products taking in account Good Sensory Practices. During the QDA measurement the intensities of the attributes were obtained by the Fizz sensory data acquisition system, using unstructured line scales ranging from 0-100. The products were evaluated twice with 11 panel members. The products were given one-by-one to the panel members. The products were given in a white polystyrene cup with a white polystyrene spoon in order to prevent sedimentation during tasting. Data were analyzed using SenPaq (Ql-statistics).
The panelists received a reference sample (2 wt.% rapeseed protein isolate in water) with a potency designated by an arbitrary sweetness value of 50 (middle of the scale), followed by several sucrose solutions coded and balanced with potencies higher than or lower than the reference. Panelists scored for example a sample that is perceived as twice as strong as the reference with a score of 100, half the sweetness was given a value of 25. Scores were gathered by means of FIZZ data acquisition on unstructured line scales ranging from 0-100. The various concentrations of sucrose were first determined by a pretest.
To identify the sweetness character (i.e. initial sweetness, lingering) of 2% rapeseed protein isolate in water compared to sucrose solutions (10 g/l, 20 g/l, 30 g/l, 40 g/l and 50 g/l) the samples were taken into the mouth on instruction of the panel leader. Directly the intensity of the sweetness was scored. After three seconds the sample was swallowed and the intensity was scored again, followed by scoring at 5, 10, 20, 30, 60, 90 and 120 seconds after swallowing. Intensity scores were given on unstructured 0-100 line scales in FIZZ. The samples were evaluated one-by-one in duplicate according to an optimally balanced design. Equal sweetness and sweetness character was assessed by comparing a 2 wt.% aqueous solution of the resultant native rapeseed protein isolate with aqueous sucrose solutions of different strengths at room temperature.

[2] = Conductivity in aqueous solution (conductivity meter); type: physicochemical; conditions: aqueous 5 g/l solution; given for comparison

Structure (SMILES)	Relative Sweetness ([1]; 10 g/l aqueous solution)	Relative Sweetness ([1]; 20 g/l aqueous solution)	Relative Sweetness ([1]; 30 g/l aqueous solution)	Relative Sweetness ([1]; 40 g/l aqueous solution)	Relative Sweetness ([1]; 50 g/l aqueous solution)	conductivity [2]
OC[C@H]1O[C@@](CO)(O[C@H]2O[C@H](CO)[C@@H](O)[C@H](O)[C@H]2O)[C@@H](O)[C@@H]1O [Sucrose]	35	49	68	70	78	–
[Cl-].[Na+] [sodium chloride]	–	–	–	–	–	around 9,400 µS/cm
